Measured values as given in BindingDB's records for doi:10.1021/jm950641i (Sandoz Research Institute, 1996).

Assays:
[1] = molecular target: T1, Dimer of Gag-Pol polyprotein [489-587] (Human immunodeficiency virus 1, UniProt P12497); test: Protease Inhibition Assay; settings: pH 6.25; 37 °C
T1 construct: 489-587
Method: (§1) Enzymatic activity was measured by following cleavage of the substrate H-Lys-Ala-Arg-Val-Leu-pNph-Glu-Ala-Nle-NH2. Products of the cleavage reaction were quantified by HPLC detection.

[2] = molecular target: T2, Dimer of Gag-Pol polyprotein [514-612] (Human immunodeficiency virus 2, UniProt P04584); test: Protease Inhibition Assay; settings: pH 4.7; 37 °C
T2 construct: 514-612
T2 sequence (P04584 whole entry): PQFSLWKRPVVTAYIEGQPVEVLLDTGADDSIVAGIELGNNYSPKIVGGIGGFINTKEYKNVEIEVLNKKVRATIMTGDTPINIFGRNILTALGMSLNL
Method: as §1

CC(C)C1NC(=O)[C@@H](C(O)[C@H](Cc2ccccc2)NC(=O)OC(C)(C)C)NCc2ccc(cc2)OCCOCCNC1=O (stereo partly drawn) [tert-butyl N-[(1S,2S)-1-[(10R,13R)-9,12-dioxo-10-(propan-2-yl)-2,5-dioxa-8,11,14-triazabicyclo[14.2.2]icosa-1(18),16,19-trien-13-yl]-1-hydroxy-3-phenylpropan-2-yl]carbamate]
Ki [1]: 14 nM

CC(C)C1NC(=O)[C@@H](C(O)[C@H](Cc2ccccc2)NC(=O)[C@@H](NC(=O)OCc2ccccc2)C(C)C)NCc2ccc(cc2)OCCOCCOCCNC1=O (stereo partly drawn) [benzyl N-[(1S)-1-{[(1S,2S)-1-[(13R,16R)-12,15-dioxo-13-(propan-2-yl)-2,5,8-trioxa-11,14,17-triazabicyclo[17.2.2]tricosa-1(21),19,22-trien-16-yl]-1-hydroxy-3-phenylpropan-2-yl]carbamoyl}-2-methylpropyl]carbamate]
Ki [1]: 6.9 nM
Ki [2]: 27 nM

CC(C)C1NC(=O)[C@@H](C(O)[C@H](Cc2ccccc2)NC(=O)OC2CCOC2)NCc2ccc(cc2)OCCOCCNC1=O (stereo partly drawn) [(3R)-oxolan-3-yl N-[(1S,2S)-1-[(10R,13R)-9,12-dioxo-10-(propan-2-yl)-2,5-dioxa-8,11,14-triazabicyclo[14.2.2]icosa-1(18),16,19-trien-13-yl]-1-hydroxy-3-phenylpropan-2-yl]carbamate]
Ki [1]: 8.2 nM

CC(C)C1NC(=O)[C@@H](C(O)[C@H](Cc2ccccc2)NC(=O)OC(C)(C)C)NCc2ccc(cc2)OCCOCCOCCOCCNC1=O (stereo partly drawn) [tert-butyl N-[(1S,2S)-1-[(16R,19R)-15,18-dioxo-16-(propan-2-yl)-2,5,8,11-tetraoxa-14,17,20-triazabicyclo[20.2.2]hexacosa-1(24),22,25-trien-19-yl]-1-hydroxy-3-phenylpropan-2-yl]carbamate]
Ki [1]: 23.2 nM

CC(C)C1NC(=O)[C@@H](C(O)[C@H](Cc2ccccc2)NC(=O)[C@@H](NC(=O)OCc2ccccc2)C(C)C)NCc2ccc(cc2)OCCOCCNC1=O (stereo partly drawn) [benzyl N-[(1S)-1-{[(1S,2S)-1-[(10R,13R)-9,12-dioxo-10-(propan-2-yl)-2,5-dioxa-8,11,14-triazabicyclo[14.2.2]icosa-1(18),16,19-trien-13-yl]-1-hydroxy-3-phenylpropan-2-yl]carbamoyl}-2-methylpropyl]carbamate]
Ki [1]: 7.9 nM
Ki [2]: 19 nM

CC(C)C1NC(=O)[C@@H](C(O)[C@H](Cc2ccccc2)NC(=O)[C@@H](NC(=O)OCc2ccccc2)C(C)C)NCc2cccc(c2)OCCOCCOCCNC1=O (stereo partly drawn) [benzyl N-[(1S)-1-{[(1S,2S)-1-[(13R,16R)-12,15-dioxo-13-(propan-2-yl)-2,5,8-trioxa-11,14,17-triazabicyclo[17.3.1]tricosa-1(22),19(23),20-trien-16-yl]-1-hydroxy-3-phenylpropan-2-yl]carbamoyl}-2-methylpropyl]carbamate]
Ki [1]: 7.7 nM

COc1ccc(CN[C@@H](C(=O)N[C@H]2c3ccccc3CC2O)C(O)[C@H](Cc2ccccc2)NC(=O)[C@@H](NC(=O)OCc2ccccc2)C(C)(C)C)cc1 (stereo partly drawn) [benzyl N-[(1S)-1-{[(2S,3S,4R)-3-hydroxy-4-{[(1S,2S)-2-hydroxy-2,3-dihydro-1H-inden-1-yl]carbamoyl}-4-{[(4-methoxyphenyl)methyl]amino}-1-phenylbutan-2-yl]carbamoyl}-2,2-dimethylpropyl]carbamate]
Ki [1]: 9.5 nM
Ki [2]: 50 nM

CC(C)C1NC(=O)[C@@H](C(O)[C@H](Cc2ccccc2)NC(=O)OC(C)(C)C)NCc2ccc(cc2)OCCCCNC1=O (stereo partly drawn) [tert-butyl N-[(1S,2S)-1-[(9R,12R)-8,11-dioxo-9-(propan-2-yl)-2-oxa-7,10,13-triazabicyclo[13.2.2]nonadeca-1(17),15,18-trien-12-yl]-1-hydroxy-3-phenylpropan-2-yl]carbamate]
Ki [1]: 17 nM

CC(C)C1NC(=O)[C@@H](C(O)[C@H](Cc2ccccc2)NC(=O)OC(C)(C)C)NCc2cccc(c2)OCCOCCOCCNC1=O (stereo partly drawn) [tert-butyl N-[(1S,2S)-1-[(13R,16R)-12,15-dioxo-13-(propan-2-yl)-2,5,8-trioxa-11,14,17-triazabicyclo[17.3.1]tricosa-1(22),19(23),20-trien-16-yl]-1-hydroxy-3-phenylpropan-2-yl]carbamate]
Ki [1]: 208 nM

COc1ccc(CN[C@@H](C(=O)NC(C(=O)NCc2nc3ccccc3[nH]2)C(C)C)C(O)[C@H](Cc2ccccc2)NC(=O)[C@@H](NC(=O)OCc2ccccc2)C(C)C)cc1 (stereo partly drawn) [benzyl N-[(1S)-1-{[(2S,3S,4R)-4-{[(1R)-1-[(1H-1,3-benzodiazol-2-ylmethyl)carbamoyl]-2-methylpropyl]carbamoyl}-3-hydroxy-4-{[(4-methoxyphenyl)methyl]amino}-1-phenylbutan-2-yl]carbamoyl}-2-methylpropyl]carbamate]
Ki [1]: 3.4 nM

CC(C)C1NC(=O)[C@@H](C(O)[C@H](Cc2ccccc2)NC(=O)[C@@H](NC(=O)CSc2nncn2C)C(C)(C)C)NCc2ccc(cc2)OCCOCCNC1=O (stereo partly drawn) [(2S)-N-[(1S,2S)-1-[(10R,13R)-9,12-dioxo-10-(propan-2-yl)-2,5-dioxa-8,11,14-triazabicyclo[14.2.2]icosa-1(18),16,19-trien-13-yl]-1-hydroxy-3-phenylpropan-2-yl]-3,3-dimethyl-2-{2-[(4-methyl-4H-1,2,4-triazol-3-yl)sulfanyl]acetamido}butanamide]
Ki [1]: 11.1 nM

CC(C)C1NC(=O)[C@@H](C(O)[C@H](Cc2ccccc2)NC(=O)[C@@H](NC(=O)OCc2ccccc2)C(C)(C)C)NCc2ccc(cc2)OCCOCCNC1=O (stereo partly drawn) [benzyl N-[(1S)-1-{[(1S,2S)-1-[(10R,13R)-9,12-dioxo-10-(propan-2-yl)-2,5-dioxa-8,11,14-triazabicyclo[14.2.2]icosa-1(18),16,19-trien-13-yl]-1-hydroxy-3-phenylpropan-2-yl]carbamoyl}-2,2-dimethylpropyl]carbamate]
Ki [1]: 8 nM
Ki [2]: 16 nM

CC(C)C1NC(=O)[C@@H](C(O)[C@H](Cc2ccccc2)NC(=O)[C@@H](NC(=O)OCc2ccccc2)C(C)C)NCc2ccc(cc2)OCCCCNC1=O (stereo partly drawn) [benzyl N-[(1S)-1-{[(1S,2S)-1-[(9R,12R)-8,11-dioxo-9-(propan-2-yl)-2-oxa-7,10,13-triazabicyclo[13.2.2]nonadeca-1(17),15,18-trien-12-yl]-1-hydroxy-3-phenylpropan-2-yl]carbamoyl}-2-methylpropyl]carbamate]
Ki [1]: 6.6 nM
